According to patent US20020137929A1, “1 - (3-heterocyclylphenyl) isothiourea, -isourea, -guanidine and -amidine herbicidal agents” (Intellectual Property Department, BASF Aktiengesellschaft, priority 1998, published 2002):

What was measured:
[1] = system: GLXMAW (Soybean, Williams); experiment: Preemergence herbicidal evaluation; assay type: in vivo, Glycine max, (L.) Merr. cv Williams; conditions: rated 4-5 weeks after treatment
Procedure, shortened: (§1)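 Preemergence soil application of compound, sprayed in aqueous acetone at rates equivalent to about 0.0156 to 0.500 kg per hectare onto freshly sown cups. Plant response was judged by eye on a 0-9 scale four to five weeks later.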

[2] = system: GALAP (Galium); experiment: Preemergence herbicidal evaluation; assay type: in vivo, Galium aparine; conditions: rated 4-5 weeks after treatment
Procedure, shortened: as §1

[3] = system: CHEAL (Lambsquarters, Common); experiment: Postemergence herbicidal evaluation; assay type: in vivo, Chenopodium album
Procedure, shortened: (§2)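 ~2-wk seedlings; postemergence spray, 40 psi; vehicle 1:1 acetone:water + 0.5% Tween 20; rate ≈0.0156–0.500 kg/ha; greenhouse hold; scored 4–5 wk after treatment, 0–9 scale vs control; repeat tests averaged.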

[4] = system: TRZAWR (Wheat, Winter, cv Riband); experiment: Preemergence herbicidal evaluation; assay type: in vivo, Triticum aestivum; conditions: rated 4-5 weeks after treatment
Procedure, shortened: as §1

[5] = system: CASOB (Sicklepod); experiment: Postemergence herbicidal evaluation; assay type: in vivo, Cassia obtusifolia
Procedure, shortened: as §2

[6] = system: CYPIR (Rice Flatsedge); experiment: Preemergence weed control under flooded paddy conditions; assay type: in vivo, Cyperus iria; conditions: rated 3-4 weeks after treatment
Procedure, shortened: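 Silt loam, seeds in top 0.5 cm; flood held 1.5-3 cm; test cpd as acetone/water 50/50 into flood water, ~0.0313-0.500 kg/ha a.i.; greenhouse 3-4 wk; visual 0-9 score vs control.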

[7] = system: SETVI (Foxtail, Green); experiment: Preemergence herbicidal evaluation; assay type: in vivo, Setaria viridis; conditions: rated 4-5 weeks after treatment
Procedure, shortened: as §1

[8] = system: SAGPY (Arrowhead (Pygmaea)); experiment: Preemergence weed control under flooded paddy conditions; assay type: in vivo, Sagittaria pygmaea; conditions: rated 3-4 weeks after treatment
Procedure, shortened: (§3)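 Greenhouse paddy assay. Acetone/water (50/50 v/v) solutions dosed into flood water, equivalent to about 0.0313 to 0.500 kg/ha active ingredient, over seeds planted 0.5 cm deep in silt loam. Score: 0-9 visual, based on stand, vigor, malformation, size and chlorosis, 3 to 4 weeks after treatment.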

[9] = system: CYPSE (Flatsedge); experiment: Postemergence weed control under flooded paddy conditions; assay type: in vivo, Cyperus serotinus; conditions: postemergence weeds, 3-4 weeks after treatment
Procedure, shortened: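 Containers holding 3–5 cm weeds and rice at 1.5–2.5 leaves are flooded to 1.5–3 cm above soil. Compound in 50/50 v/v aqueous/acetone is then added directly to the water, about 0.0313–0.500 kg/ha. Plants are kept in the greenhouse and rated 0–9 visually at 3–4 weeks.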

[10] = system: ECHCG (Barnyardgrass); experiment: Postemergence herbicidal evaluation; assay type: in vivo, Echinochloa crus-galli
Procedure, shortened: as §2

[11] = system: MOOVA (Monochoria); experiment: Preemergence weed control under flooded paddy conditions; assay type: in vivo, Monochoria vaginalis; conditions: rated 3-4 weeks after treatment
Procedure, shortened: as §3

[12] = system: ZEAMX (Corn, Field); experiment: Preemergence herbicidal evaluation; assay type: in vivo, Zea mays; conditions: rated 4-5 weeks after treatment
Procedure, shortened: as §1

[13] = system: ORYSAT (Rice, Tebonnet); experiment: Postemergence herbicidal evaluation; assay type: in vivo, Oryza sativa, (L.) Tebonnet
Procedure, shortened: as §2

[14] = system: ORYSAT (Rice, Tebonnet); experiment: Preemergence herbicidal evaluation; assay type: in vivo, Oryza sativa, (L.) Tebonnet; conditions: rated 4-5 weeks after treatment
Procedure, shortened: as §1

In the case of `CCOC(=O)CN1C(=O)C(CC(=O)OCc2ccccc2)OC1=Nc1cc(-n2c(=O)cc(C(F)(F)F)n(C)c2=O)c(F)cc1Cl` (stereo not shown) [Compound 40, 2-{{2-Chloro-5-[3,6-dihydro-3-methyl-2,6-dioxo-4-(trifluoromethyl)-1(2H)-pyrimidinyl]-4-fluorophenyl}imino}-4-oxo-3,5-oxazolidinediacetic acid, 5-benzyl ethyl ester], the “Preemergence herbicidal rating GLXMAW” value ([1]; rate 0.0313 kg/ha) is reported as 0.0, the “Preemergence herbicidal rating GLXMAW” value ([1]; rate 0.0625 kg/ha) is reported as 0.0 and the “Preemergence herbicidal rating GLXMAW” value ([1]; rate 0.1250 kg/ha) is reported as 1.0. For the same molecule, the “Preemergence herbicidal rating GLXMAW” value ([1]; rate 0.2500 kg/ha) was 3.0, the “Preemergence herbicidal rating GALAP” value ([2]; rate 0.0313 kg/ha) was 0.0 and the “Preemergence herbicidal rating GALAP” value ([2]; rate 0.0625 kg/ha) was 0.0. The “Preemergence herbicidal rating GALAP” value ([2]; rate 0.1250 kg/ha) was 0.0, the “Preemergence herbicidal rating GALAP” value ([2]; rate 0.2500 kg/ha) was 0.0 and the “Postemergence herbicidal rating CHEAL” value ([3]; Rate 0.0158 kg/ha) was 2.0. The “Postemergence herbicidal rating CHEAL” value ([3]; Rate 0.0315 kg/ha) was 7.0, the “Postemergence herbicidal rating CHEAL” value ([3]; Rate 0.0630 kg/ha) was 9.0 and the “Preemergence herbicidal rating TRZAWR” value ([4]; rate 0.0313 kg/ha) was 0.0. For the same molecule, the “Preemergence herbicidal rating TRZAWR” value ([4]; rate 0.0625 kg/ha) was 0.0, the “Preemergence herbicidal rating TRZAWR” value ([4]; rate 0.1250 kg/ha) was 0.0 and the “Preemergence herbicidal rating TRZAWR” value ([4]; rate 0.2500 kg/ha) was 1.0. The “Postemergence herbicidal rating CASOB” value ([5]; Rate 0.0158 kg/ha) was 0.0, the “Postemergence herbicidal rating CASOB” value ([5]; Rate 0.0315 kg/ha) was 2.0 and the “Postemergence herbicidal rating CASOB” value ([5]; Rate 0.0630 kg/ha) was 5.0. The “Herbicidal rating CYPIR” value ([6]; 0.0313 kg/ha) was 0.0, the “Herbicidal rating CYPIR” value ([6]; 0.0625 kg/ha) was 0.0 and the “Herbicidal rating CYPIR” value ([6]; 0.1250 kg/ha) was 0.0. The “Herbicidal rating CYPIR” value ([6]; 0.2500 kg/ha) was 0.0, the “Preemergence herbicidal rating SETVI” value ([7]; rate 0.0313 kg/ha) was 0.0 and the “Preemergence herbicidal rating SETVI” value ([7]; rate 0.0625 kg/ha) was 0.0. The “Preemergence herbicidal rating SETVI” value ([7]; rate 0.1250 kg/ha) was 6.0, the “Preemergence herbicidal rating SETVI” value ([7]; rate 0.2500 kg/ha) was 6.0 and the “Herbicidal rating SAGPY” value ([8]; 0.0313 kg/ha) was 0.0. For the same molecule, the “Herbicidal rating SAGPY” value ([8]; 0.0625 kg/ha) was 0.0, the “Herbicidal rating SAGPY” value ([8]; 0.1250 kg/ha) was 0.0 and the “Herbicidal rating SAGPY” value ([8]; 0.2500 kg/ha) was 0.0. For the same molecule, the “Herbicidal rating CYPSE” value ([9]; rate 0.0313 kg/ha) was 0.0, the “Herbicidal rating CYPSE” value ([9]; rate 0.0625 kg/ha) was 0.0 and the “Herbicidal rating CYPSE” value ([9]; rate 0.1250 kg/ha) was 0.0. The “Herbicidal rating CYPSE” value ([9]; rate 0.2500 kg/ha) was 6.0, the “Postemergence herbicidal rating ECHCG” value ([10]; Rate 0.0158 kg/ha) was 1.0 and the “Postemergence herbicidal rating ECHCG” value ([10]; Rate 0.0315 kg/ha) was 7.0. The “Postemergence herbicidal rating ECHCG” value ([10]; Rate 0.0630 kg/ha) was 9.0, the “Herbicidal rating MOOVA” value ([11]; 0.0313 kg/ha) was 9.0 and the “Herbicidal rating MOOVA” value ([11]; 0.0625 kg/ha) was 9.0. For the same molecule, the “Herbicidal rating MOOVA” value ([11]; 0.1250 kg/ha) was 9.0, the “Herbicidal rating MOOVA” value ([11]; 0.2500 kg/ha) was 9.0 and the “Preemergence herbicidal rating ZEAMX” value ([12]; rate 0.0313 kg/ha) was 0.0. The “Preemergence herbicidal rating ZEAMX” value ([12]; rate 0.0625 kg/ha) was 0.0, the “Preemergence herbicidal rating ZEAMX” value ([12]; rate 0.1250 kg/ha) was 0.0 and the “Preemergence herbicidal rating ZEAMX” value ([12]; rate 0.2500 kg/ha) was 1.0. The “Postemergence herbicidal rating ORYSAT” value ([13]; Rate 0.0158 kg/ha) was 2.5, the “Postemergence herbicidal rating ORYSAT” value ([13]; Rate 0.0315 kg/ha) was 3.0 and the “Postemergence herbicidal rating ORYSAT” value ([13]; Rate 0.0630 kg/ha) was 3.0. For the same molecule, the “Preemergence herbicidal rating ORYSAT” value ([14]; rate 0.0313 kg/ha) was 0.0, the “Preemergence herbicidal rating ORYSAT” value ([14]; rate 0.0625 kg/ha) was 0.0 and the “Preemergence herbicidal rating ORYSAT” value ([14]; rate 0.1250 kg/ha) was 0.0. For the same molecule, the “Preemergence herbicidal rating ORYSAT” value ([14]; rate 0.2500 kg/ha) was 1.0.
